# The source made the active and inactive calls.
# Assays:
# [1] = molecular target: T1, RNA-binding protein pos-1 (Caenorhabditis elegans, UniProt G5EF15); assay: disruptors of C. elegans POS-1 RNA interaction – biochemical, fluorescence polarization, dose response (AID 1964);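 also: purified POS-1 fused to maltose binding protein made in E. coli; potency of compounds blocking POS-1 binding to fluorescent RNA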
# T1 sequence (G5EF15 whole entry): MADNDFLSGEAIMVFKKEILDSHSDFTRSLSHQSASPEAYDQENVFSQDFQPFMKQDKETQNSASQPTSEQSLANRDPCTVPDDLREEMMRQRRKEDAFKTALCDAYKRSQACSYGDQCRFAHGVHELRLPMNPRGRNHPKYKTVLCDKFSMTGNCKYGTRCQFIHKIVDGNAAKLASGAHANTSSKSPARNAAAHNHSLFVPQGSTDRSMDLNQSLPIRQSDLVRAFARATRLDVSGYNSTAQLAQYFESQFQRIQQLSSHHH
# HEK293 [2] = assay: cells; format: functional, cell-based; details: Homo sapiens
# [3] = molecular target: T2, Zinc finger protein mex-5 (Caenorhabditis elegans, UniProt Q9XUB2); assay: potency of MEX-5 RNA-binding blockers – biochemical, C. elegans, fluorescence polarization, dose response (AID 1960)
# T2 sequence (Q9XUB2 whole entry): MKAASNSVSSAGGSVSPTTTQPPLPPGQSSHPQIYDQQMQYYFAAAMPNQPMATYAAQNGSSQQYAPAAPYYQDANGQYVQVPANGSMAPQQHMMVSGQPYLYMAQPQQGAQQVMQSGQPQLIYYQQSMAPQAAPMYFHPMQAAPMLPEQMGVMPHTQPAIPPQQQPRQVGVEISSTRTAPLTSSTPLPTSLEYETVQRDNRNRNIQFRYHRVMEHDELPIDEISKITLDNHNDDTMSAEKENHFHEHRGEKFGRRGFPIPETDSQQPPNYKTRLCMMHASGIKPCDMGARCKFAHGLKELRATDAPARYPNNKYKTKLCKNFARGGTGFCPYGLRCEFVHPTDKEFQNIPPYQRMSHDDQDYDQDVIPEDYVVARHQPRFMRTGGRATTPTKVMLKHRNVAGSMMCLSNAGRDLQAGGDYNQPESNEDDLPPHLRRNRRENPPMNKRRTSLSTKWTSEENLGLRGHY
# HEK293 [4] = assay: NOD2 signaling inhibitors in MDP-stimulated cells, cell-based, uHTS, luminescence (AID 2001); format: functional; details: Homo sapiens
# HEK293 [5] = assay: cells; format: functional, cell-based; details: Homo sapiens; remark: listed apart in the source
# HEK293 [6] = assay: inhibition of NOD1-driven NF-kB reporter – cell-based, luminescence, uHTS, primary screen (AID 1578); format: functional; details: Homo sapiens
# [7] = Counterscreen for activators of the function of SWI/SNF related, matrix associated, actin dependent regulator of chromatin, subfamily a, member 2 (SMARCA2, BRM): Luminescence-based cell-based high throughput dose response assay to identify non-selective compounds using the VP16 reporter assay.; format: functional
# [8] = molecular target: SWI/SNF-related matrix-associated actin-dependent regulator of chromatin subfamily A member 2 (Homo sapiens, UniProt P51531); assay: Luminescence-based cell-based high throughput dose response assay to identify activators of the function of SWI/SNF related, matrix associated, actin dependent regulator of chromatin, subfamily a, member 2 (SMARCA2, BRM).; format: functional
# HeLa = assay: ATP-based viability loss in HeLa cells – cell-based, CellTiter-Glo luminescence, cherry-pick samples, cytotoxicity control for MITF activator project, dose response (AID 540259); format: functional; details: Homo sapiens
# Cytochrome P450 2D6 = Cytochrome P450 2D6 (Homo sapiens, UniProt P10635);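 also: CYP2D6 member of a cytochrome P450 panel assay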
# Cytochrome P450 2C9 = Cytochrome P450 2C9 (Homo sapiens, UniProt P11712)
# Cytochrome P450 3A4 = Cytochrome P450 3A4 (Homo sapiens, UniProt P08684);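 also: CYP3A4 tested as one member of a cytochrome P450 panel screen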
# Coagulation factor XII = molecular target: T3, Coagulation factor XII (Homo sapiens, UniProt P00748); format: functional;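 also: activated factor XIIa alpha cleaving a fluorogenic AMC peptide substrate; inhibitor potency from loss of enzyme activity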
# T3 sequence (P00748 whole entry): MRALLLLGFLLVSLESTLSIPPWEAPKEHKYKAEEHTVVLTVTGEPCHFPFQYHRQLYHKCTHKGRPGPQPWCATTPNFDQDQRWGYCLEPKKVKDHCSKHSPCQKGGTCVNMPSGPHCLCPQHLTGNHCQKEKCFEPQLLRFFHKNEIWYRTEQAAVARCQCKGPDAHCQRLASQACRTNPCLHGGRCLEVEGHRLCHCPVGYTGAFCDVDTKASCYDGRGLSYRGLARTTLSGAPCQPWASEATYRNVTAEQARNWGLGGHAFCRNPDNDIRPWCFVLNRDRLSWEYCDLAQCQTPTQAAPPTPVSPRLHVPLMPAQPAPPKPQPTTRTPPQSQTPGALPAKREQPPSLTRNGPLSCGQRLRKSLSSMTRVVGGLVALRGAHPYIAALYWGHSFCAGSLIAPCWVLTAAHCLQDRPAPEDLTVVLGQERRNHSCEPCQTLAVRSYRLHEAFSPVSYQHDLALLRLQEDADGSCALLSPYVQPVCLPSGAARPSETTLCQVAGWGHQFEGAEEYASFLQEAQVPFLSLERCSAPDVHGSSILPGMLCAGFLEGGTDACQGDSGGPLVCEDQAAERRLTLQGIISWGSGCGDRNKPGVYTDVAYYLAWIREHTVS
# Cytochrome P450 1A2 = molecular target: T4, Cytochrome P450 1A2 (Homo sapiens, UniProt P05177);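 also: PubChem cytochrome P450 panel assay, CYP1A2 panel member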
# T4 sequence (P05177 whole entry): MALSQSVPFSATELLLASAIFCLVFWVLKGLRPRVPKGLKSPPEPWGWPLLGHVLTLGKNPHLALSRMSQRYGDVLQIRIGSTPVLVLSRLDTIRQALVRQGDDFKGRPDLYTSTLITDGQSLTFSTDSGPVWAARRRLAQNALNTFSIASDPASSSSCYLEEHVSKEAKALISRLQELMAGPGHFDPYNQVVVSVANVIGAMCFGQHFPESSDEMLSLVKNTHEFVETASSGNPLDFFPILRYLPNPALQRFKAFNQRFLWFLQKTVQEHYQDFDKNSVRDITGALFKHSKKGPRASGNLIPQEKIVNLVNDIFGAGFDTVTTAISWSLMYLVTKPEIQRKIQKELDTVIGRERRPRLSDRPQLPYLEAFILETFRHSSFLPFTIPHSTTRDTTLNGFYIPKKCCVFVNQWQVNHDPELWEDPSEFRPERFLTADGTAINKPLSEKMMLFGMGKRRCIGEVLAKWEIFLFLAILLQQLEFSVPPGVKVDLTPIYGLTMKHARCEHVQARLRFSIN
# HEK293 [9] = assay: EBV LMP1 TES2 canonical NF-kB signalling blockers – cell-based, HEK293, luciferase, cherry-pick, dose response (AID 588343); format: functional; details: Homo sapiens
# [10] = HIV-1 AD8 envelope cell-cell fusion blockers – cherry-pick, dose response (AID 652062); format: functional, cell-based;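 also: luciferase signal from cell-cell fusion driven by HIV-1 clade B AD8 Env; potency is for inhibitors of fusion seen as a drop in luminescence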
# [11] = viability loss in CEM21 cells – cell-based, CellTiter-Glo luminescence, cherry-picked, cytotoxicity control for viral fusion inhibitor project, dose response (AID 652042); format: functional;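 also: potency for signal decrease meaning cytotoxicity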
# [12] = blockers of HIV-1 envelope-mediated cell-cell fusion – cherry-pick, dose response (AID 652057); format: functional, cell-based
# [13] = P. falciparum Dd2 growth inhibitors, dose response, SYBR Green, cherry-picked samples (AID 1159567); format: functional, cell-based
# [14] = non-specific 3'UTR reporter inhibition in Clone20-Shn3RL – cell-based, Renilla luciferase, cherry-picked, counter-screen for Shn3 inhibitor project, dose response (AID 624133); format: functional
# [15] = reduction of Shn3 3'UTR-driven luciferase in osteoblasts – cell-based, Clone20 osteoblasts, firefly luciferase, cherry-picked, dose response (AID 624132); format: functional;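 also: firefly luciferase luminescence from reporter carrying the Shn3 3'UTR in osteoblasts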
# [16] = loss of viability in HepG2 cells – cell-based, CellTiter-Glo, cherry-picked, cytotoxicity control for Shn3 inhibitor project, dose response (AID 624134); format: functional
# Sequence of SWI/SNF-related matrix-associated actin-dependent regulator of chromatin subfamily A member 2 (P51531 whole entry): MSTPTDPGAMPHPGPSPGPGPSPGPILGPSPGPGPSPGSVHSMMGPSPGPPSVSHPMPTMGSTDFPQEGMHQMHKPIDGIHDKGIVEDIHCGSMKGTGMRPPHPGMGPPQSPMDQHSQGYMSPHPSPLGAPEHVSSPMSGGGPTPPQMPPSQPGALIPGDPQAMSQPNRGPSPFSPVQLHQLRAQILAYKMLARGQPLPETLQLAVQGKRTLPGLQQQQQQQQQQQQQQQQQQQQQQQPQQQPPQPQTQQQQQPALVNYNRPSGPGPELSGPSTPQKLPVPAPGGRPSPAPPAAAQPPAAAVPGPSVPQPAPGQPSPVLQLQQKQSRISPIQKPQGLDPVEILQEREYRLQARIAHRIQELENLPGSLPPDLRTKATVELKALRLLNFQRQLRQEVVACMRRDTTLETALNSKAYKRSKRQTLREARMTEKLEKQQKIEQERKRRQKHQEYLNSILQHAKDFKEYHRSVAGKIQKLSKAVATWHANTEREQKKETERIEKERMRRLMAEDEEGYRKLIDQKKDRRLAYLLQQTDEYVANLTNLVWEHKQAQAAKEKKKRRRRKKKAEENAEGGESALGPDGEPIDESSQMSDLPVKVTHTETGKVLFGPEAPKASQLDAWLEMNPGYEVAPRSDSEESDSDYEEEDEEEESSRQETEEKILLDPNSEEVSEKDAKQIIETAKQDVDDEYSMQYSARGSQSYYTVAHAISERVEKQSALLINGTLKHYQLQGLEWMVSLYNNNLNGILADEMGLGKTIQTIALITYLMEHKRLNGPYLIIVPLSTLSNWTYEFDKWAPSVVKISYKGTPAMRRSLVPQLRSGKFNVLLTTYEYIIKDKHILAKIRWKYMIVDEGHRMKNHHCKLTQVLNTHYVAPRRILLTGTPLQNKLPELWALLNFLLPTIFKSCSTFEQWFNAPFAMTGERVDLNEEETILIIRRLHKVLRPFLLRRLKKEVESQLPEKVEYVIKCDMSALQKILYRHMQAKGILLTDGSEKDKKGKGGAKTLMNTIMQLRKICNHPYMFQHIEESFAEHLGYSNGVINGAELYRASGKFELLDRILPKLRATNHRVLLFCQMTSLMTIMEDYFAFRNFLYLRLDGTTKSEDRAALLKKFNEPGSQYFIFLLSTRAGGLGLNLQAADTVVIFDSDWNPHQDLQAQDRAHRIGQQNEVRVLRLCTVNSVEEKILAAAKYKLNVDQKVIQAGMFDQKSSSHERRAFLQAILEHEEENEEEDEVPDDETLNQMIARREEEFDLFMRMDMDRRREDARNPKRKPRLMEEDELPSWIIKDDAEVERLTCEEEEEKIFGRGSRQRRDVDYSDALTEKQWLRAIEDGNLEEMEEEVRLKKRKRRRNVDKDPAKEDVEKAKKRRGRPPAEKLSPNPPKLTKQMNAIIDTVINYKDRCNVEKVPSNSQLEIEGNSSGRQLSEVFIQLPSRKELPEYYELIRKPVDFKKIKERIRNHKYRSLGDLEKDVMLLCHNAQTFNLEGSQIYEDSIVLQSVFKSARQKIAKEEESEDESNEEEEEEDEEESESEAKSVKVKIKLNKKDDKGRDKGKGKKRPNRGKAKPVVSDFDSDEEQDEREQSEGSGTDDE
# Sequence of Cytochrome P450 3A4 (P08684 whole entry): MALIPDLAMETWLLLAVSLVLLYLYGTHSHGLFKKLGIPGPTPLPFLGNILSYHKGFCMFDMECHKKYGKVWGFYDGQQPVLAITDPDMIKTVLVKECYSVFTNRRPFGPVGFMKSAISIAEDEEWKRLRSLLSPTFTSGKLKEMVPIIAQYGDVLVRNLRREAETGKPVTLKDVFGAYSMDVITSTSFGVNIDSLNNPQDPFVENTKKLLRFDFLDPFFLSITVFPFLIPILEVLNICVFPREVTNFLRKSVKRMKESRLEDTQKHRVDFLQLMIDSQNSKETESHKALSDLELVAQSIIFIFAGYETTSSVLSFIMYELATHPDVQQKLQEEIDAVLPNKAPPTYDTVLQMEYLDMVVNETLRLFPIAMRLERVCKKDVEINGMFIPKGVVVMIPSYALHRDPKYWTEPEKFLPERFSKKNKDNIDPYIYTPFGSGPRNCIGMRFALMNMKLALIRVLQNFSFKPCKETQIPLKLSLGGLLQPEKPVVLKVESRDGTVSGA
# Sequence of Cytochrome P450 2C9 (P11712 whole entry): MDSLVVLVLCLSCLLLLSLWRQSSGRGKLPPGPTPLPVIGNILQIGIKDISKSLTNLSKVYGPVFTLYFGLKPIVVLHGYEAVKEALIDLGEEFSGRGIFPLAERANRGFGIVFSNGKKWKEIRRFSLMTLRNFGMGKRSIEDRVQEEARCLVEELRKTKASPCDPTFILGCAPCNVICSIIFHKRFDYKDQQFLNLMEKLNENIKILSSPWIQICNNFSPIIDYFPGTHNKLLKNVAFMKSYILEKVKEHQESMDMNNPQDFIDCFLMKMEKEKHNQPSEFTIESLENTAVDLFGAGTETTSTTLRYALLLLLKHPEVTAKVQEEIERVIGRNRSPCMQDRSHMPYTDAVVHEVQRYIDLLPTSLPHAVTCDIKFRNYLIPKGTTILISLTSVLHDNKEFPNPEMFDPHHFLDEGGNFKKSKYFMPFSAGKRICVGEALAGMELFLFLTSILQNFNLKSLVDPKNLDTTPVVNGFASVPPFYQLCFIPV
# Sequence of Cytochrome P450 2D6 (P10635 whole entry): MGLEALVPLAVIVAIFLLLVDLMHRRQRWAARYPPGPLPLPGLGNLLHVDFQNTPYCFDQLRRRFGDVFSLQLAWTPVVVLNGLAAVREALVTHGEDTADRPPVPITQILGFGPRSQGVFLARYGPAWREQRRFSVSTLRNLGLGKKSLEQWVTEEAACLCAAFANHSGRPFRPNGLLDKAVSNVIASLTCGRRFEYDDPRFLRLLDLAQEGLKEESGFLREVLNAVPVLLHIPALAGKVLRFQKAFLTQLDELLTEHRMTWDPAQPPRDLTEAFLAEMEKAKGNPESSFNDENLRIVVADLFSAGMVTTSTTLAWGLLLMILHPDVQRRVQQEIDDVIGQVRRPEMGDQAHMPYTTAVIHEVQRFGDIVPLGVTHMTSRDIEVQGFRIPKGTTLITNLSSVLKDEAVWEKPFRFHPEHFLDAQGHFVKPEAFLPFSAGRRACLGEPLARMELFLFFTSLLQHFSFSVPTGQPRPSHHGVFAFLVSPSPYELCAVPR
compound,measurement,setting,value
COc1ccc(/C=C/C(=O)c2c(C)cc(C)nc2O)c2ccccc12,EC50,[1],> 300 µM (not active)
same,IC50,HEK293 [2],10.1 µM (active)
same,EC50,[3],> 300 µM (not active)
same,IC50,HEK293 [4],12.4 µM (inactive)
same,IC50,HEK293 [5],> 20 µM (inactive)
same,EC50,HEK293 [6],4.53 µM (active)
O=C(OCc1cc(=O)oc2cc(O)ccc12)c1cc(S(=O)(=O)N2CCOCC2)ccc1F,EC50,[7],> 91.2 µM (inactive)
same,EC50,[8],> 91.2 µM (inactive)
Nc1ccc2oc(=O)c3ccccc3c2c1,AC50,HeLa,178 µM (active)
O=C(c1ccccc1)C1CN(c2ccccc2)CC1c1ccc(Cl)cc1 (configuration not stated),AC50,Cytochrome P450 2D6,3.16 µM (inconclusive)
same,AC50,Cytochrome P450 2C9,5.01 µM (inconclusive)
same,AC50,Cytochrome P450 3A4,8.91 µM (inconclusive)
same,IC50,Coagulation factor XII,> 50 µM (inactive)
same,AC50,Cytochrome P450 1A2,3.55 µM (inconclusive)
O=C(NNC(S)=Nc1ccc(F)cc1F)c1ccco1,EC50,[7],> 91.2 µM (inactive)
same,EC50,[8],> 91.2 µM (inactive)
CC(=NNC(=S)Nc1ccccc1)c1ccccn1,AC50,HEK293 [9],0.0995 µM (active)
CC(C)[C@H](N)C(=O)N[C@H]1CCC2C3CC=C4C[C@@H](O)CC[C@]4(C)C3CC[C@@]21C (some centres not stated),EC50,[7],> 91.2 µM (inactive)
same,EC50,[8],> 91.2 µM (inactive)
C[C@H]1CN([C@@H](C)CO)C(=O)c2c(c3ccccc3n2C)-c2ccccc2CO[C@@H]1CN(C)C(=O)Cc1ccccc1,AC50,[10],< 0.26 µM (active)
same,AC50,[11],27.4 µM (active)
same,AC50,[12],< 0.26 µM (active)
same,AC50,[13],3.45 µM (active)
CCCC(=O)NC(c1cccc([N+](=O)[O-])c1)c1ccc2cccnc2c1O (configuration not stated),AC50,[14],3.55 µM (active)
same,AC50,HEK293 [9],4.48 µM (active)
same,AC50,[15],1.75 µM (active)
same,AC50,[16],4.25 µM (active)

# — ChEMBL document CHEMBL1201862, “PubChem BioAssay data set” (2004)
